The text below walks through data of patent US11773078B2, “Furin inhibitors” (Glaxosmithkline Intellectual Property Development Limited, priority 2018, dated 2023).

For test [1], the target named is T1, furin (endogenous protease) in U20S cells (Homo sapiens, UniProt P09958).
T1 construct: the endogenous protease cleaves GFP; endogenous in cells; host or cells: U2OS cells transduced with a BacMam reporter
The experiment in a line: Furin cell-based assay (image-based, Golgi-targeted GFP with BMP10 furin/PCSK cleavage site).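 Note: Read-out is mean GFP fluorescence of Golgi puncta per cell by high-content imaging, retained when furin inhibited, over an eleven-point 0.00017–10 µM series, four-parameter fit.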 The conditions noted are these: 24-hour incubation, read-out: furin golgi cell pXC50 (converted).

Test [2] deals with T2, Furin (108-574-Tev-Flag-His) enzyme (Homo sapiens, UniProt P09958).
T2 construct: Furin (108-574-Tev-Flag-His) enzyme was expressed and purified from CHO cells; TEV cleavage site (C); FLAG (C); His (C); made in house; host or cells: CHO cells
The experiment in a line: Furin enzyme assay. It is filed as biochemical. The essentials:
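CHO-expressed, purified furin construct at 40 pM in 100 mM HEPES pH7.5, 1 mM CaCl2, 0.005% Triton X-100. Eleven-point 1:3 series, 0.00017–10 μM final, incubated 2 h at room temperature and read on Envision. pXC50 from four-parameter fit.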

Structures can show the parent of a compound that is named as a salt.

T1 sequence (P09958 108-794): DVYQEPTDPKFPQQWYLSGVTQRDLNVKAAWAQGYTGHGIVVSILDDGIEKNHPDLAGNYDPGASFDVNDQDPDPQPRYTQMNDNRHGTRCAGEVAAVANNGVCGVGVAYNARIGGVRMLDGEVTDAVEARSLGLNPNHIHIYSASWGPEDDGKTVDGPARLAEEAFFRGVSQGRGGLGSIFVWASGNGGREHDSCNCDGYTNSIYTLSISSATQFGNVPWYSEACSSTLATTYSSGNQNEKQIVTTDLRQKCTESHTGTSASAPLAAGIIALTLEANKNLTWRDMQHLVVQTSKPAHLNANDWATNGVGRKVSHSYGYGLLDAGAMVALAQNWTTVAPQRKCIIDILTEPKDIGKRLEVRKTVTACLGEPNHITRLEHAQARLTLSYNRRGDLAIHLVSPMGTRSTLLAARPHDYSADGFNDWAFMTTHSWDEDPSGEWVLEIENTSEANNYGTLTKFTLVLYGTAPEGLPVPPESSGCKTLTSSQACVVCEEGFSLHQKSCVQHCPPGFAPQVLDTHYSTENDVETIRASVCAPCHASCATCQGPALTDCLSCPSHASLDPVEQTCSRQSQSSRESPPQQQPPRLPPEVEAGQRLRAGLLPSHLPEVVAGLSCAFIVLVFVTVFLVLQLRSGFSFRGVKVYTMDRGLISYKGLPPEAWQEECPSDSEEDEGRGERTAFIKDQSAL
T2 sequence (P09958 108-574): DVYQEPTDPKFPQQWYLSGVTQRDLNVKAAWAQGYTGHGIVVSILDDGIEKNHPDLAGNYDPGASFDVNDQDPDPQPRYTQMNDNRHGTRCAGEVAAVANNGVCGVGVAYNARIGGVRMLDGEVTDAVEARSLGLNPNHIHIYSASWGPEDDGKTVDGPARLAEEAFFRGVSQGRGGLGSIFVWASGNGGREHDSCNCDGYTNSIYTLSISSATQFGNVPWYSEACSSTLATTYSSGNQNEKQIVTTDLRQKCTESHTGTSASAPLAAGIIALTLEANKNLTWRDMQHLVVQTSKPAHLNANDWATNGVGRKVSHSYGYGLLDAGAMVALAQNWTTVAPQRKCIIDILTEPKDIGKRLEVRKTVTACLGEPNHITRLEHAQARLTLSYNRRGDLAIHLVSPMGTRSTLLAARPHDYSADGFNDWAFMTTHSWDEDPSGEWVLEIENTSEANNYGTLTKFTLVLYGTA

Turning to `CC(=O)NCC1CCN(Cc2cc(Oc3cnc(N4CCN(CC(C)(C)O)CC4)nc3)nc(-c3cc(Cl)cc(Cl)c3)c2)CC1` [Example 303, N-((1-((2-(3,5-dichlorophenyl)-6-((2-(4-(2-hydroxy-2-methylpropyl)piperazin-1-yl)pyrimidin-5-yl)oxy)pyridin-4-yl)methyl)piperidin-4-yl)methyl)acetamide], the EC50 in test [1] was 2.51 nM. In addition, the “furin enzyme pIC50” value in test [2] is on record as 9.2.
In the same order, the values of `CC(=O)NCC1CCN(Cc2cc(Oc3cnc(N4CCN(CC(O)CF)CC4)nc3)nc(-c3cc(Cl)cc(Cl)c3)c2)CC1` (stereo not shown) [Example 304, N-((1-((2-(3,5-dichlorophenyl)-6-((2-(4-(3-fluoro-2-hydroxypropyl)piperazin-1-yl)pyrimidin-5-yl)oxy)pyridin-4-yl)methyl)piperidin-4-yl)methyl)acetamide] are 2.51 nM and 8.8.
With `CNC(=O)OCC1CCN(Cc2cc(Oc3ccc(N4CCN(C[C@@H](C)O)CC4)nc3)nc(-c3cc(Cl)cc(Cl)c3)c2)CC1` [Example 305, (R)-(1-((2-(3,5-dichlorophenyl)-6-((6-(4-(2-hydroxypropyl)piperazin-1-yl)pyridin-3-yl)oxy)pyridin-4-yl)methyl)piperidin-4-yl)methyl methylcarbamate], the EC50 in test [1] is 10 nM. For the same compound, the “furin enzyme pIC50” value in test [2] is given as 8.7.
As for `CNC(=O)OCC1CCN(Cc2cc(Oc3cnc(N4CCN(CCO)CC4)nc3)nc(-c3cc(Cl)cc(Cl)c3)c2)CC1` [Example 307, (1-((2-(3,5-dichlorophenyl)-6-((2-(4-(2-hydroxyethyl)piperazin-1-yl)pyrimidin-5-yl)oxy)pyridin-4-yl)methyl)piperidin-4-yl)methyl methylcarbamate], the EC50 in test [1] is 2 nM. Further, in test [2], the “furin enzyme pIC50” value worked out at 9.4.
In the same order, the values of `CNC(=O)OCC1CCN(Cc2cc(Oc3cnc(N4CCN(C[C@@H](C)O)CC4)nc3)nc(-c3cc(Cl)cc(Cl)c3)c2)CC1` [Example 308, (R)-(1-((2-(3,5-dichlorophenyl)-6-((2-(4-(2-hydroxypropyl)piperazin-1-yl)pyrimidin-5-yl)oxy)pyridin-4-yl)methyl)piperidin-4-yl)methyl methylcarbamate] are 12.6 nM and 9.3.
For `CNC(=O)NCC1CCN(Cc2cc(Oc3ccc(N4CCN(C[C@@H](C)O)CC4)nc3)nc(-c3cc(Cl)cc(Cl)c3)c2)CC1` [Example 309, (R)-1-((1-((2-(3,5-dichlorophenyl)-6-((6-(4-(2-hydroxypropyl)piperazin-1-yl)pyridin-3-yl)oxy)pyridin-4-yl)methyl)piperidin-4-yl)methyl)-3-methylurea], in that order: 2.51 nM and 9.8.
For `CNC(=O)NCC1CCN(Cc2cc(Oc3cnc(N4CCN(C[C@@H](C)O)CC4)nc3)nc(-c3cc(Cl)cc(Cl)c3)c2)CC1` [Example 310, (R)-1-((1-((2-(3,5-dichlorophenyl)-6-((2-(4-(2-hydroxypropyl)piperazin-1-yl)pyrimidin-5-yl)oxy)pyridin-4-yl)methyl)piperidin-4-yl)methyl)-3-methylurea], in that order: 3.98 nM and 9.6.
Take `COC(=O)NCC1CCN(Cc2cc(Oc3cnc(N4CCN(CCO)CC4)nc3)nc(-c3cc(Cl)cc(Cl)c3)c2)CC1` [Example 311, methyl ((1-((2-(3,5-dichlorophenyl)-6-((2-(4-(2-hydroxyethyl)piperazin-1-yl)pyrimidin-5-yl)oxy)pyridin-4-yl)methyl)piperidin-4-yl)methyl)carbamate]: the EC50 in test [1] is 15.8 nM. In addition, the “furin enzyme pIC50” value in test [2] is 8.9.
In the same order, the values of `COC(=O)NCC1CCN(Cc2cc(Oc3cnc(N4CCN(C[C@@H](C)O)CC4)nc3)nc(-c3cc(Cl)cc(Cl)c3)c2)CC1` [Example 312, (R)-methyl ((1-((2-(3,5-dichlorophenyl)-6-((2-(4-(2-hydroxypropyl)piperazin-1-yl)pyrimidin-5-yl)oxy)pyridin-4-yl)methyl)piperidin-4-yl)methyl)carbamate] are 15.8 nM and 9.7.
For `CNC(=O)NCC1CCN(Cc2cc(Oc3cnc(N4CCN(CCO)CC4)nc3)cc(-c3cc(Cl)cc(Cl)c3)c2)CC1` [Example 313, 1-((1-((3′,5′-dichloro-5-((2-(4-(2-hydroxyethyl)piperazin-1-yl)pyrimidin-5-yl)oxy)-[1,1′-biphenyl]-3-yl)methyl)piperidin-4-yl)methyl)-3-methylurea], the EC50 in test [1] is 15.8 nM. Besides, the IC50 in test [2] (read-out: furin enzyme pIC50 (converted)) is under 0.158 nM.
In the case of `O=C(O)CCC1CCN(Cc2cc(Oc3ccc(N4CCN(CCO)CC4)nc3)nc(-c3cc(Cl)cc(Cl)c3)c2)CC1` [Example 314, 3-(1-((2-(3,5-dichlorophenyl)-6-((6-(4-(2-hydroxyethyl)piperazin-1-yl)pyridin-3-yl)oxy)pyridin-4-yl)methyl)piperidin-4-yl)propanoic acid], the EC50 in test [1] is 31.6 nM. In addition, the “furin enzyme pIC50” value in test [2] came to 8.9.
In the same order, the values of `CC(=O)NCC1CCN(Cc2cc(Oc3cnc(N4CCN(CCO)CC4)nc3)nc(-c3cc(F)cc(Cl)c3)c2)CC1` [Example 315, N-((1-((2-(3-chloro-5-fluorophenyl)-6-((2-(4-(2-hydroxyethyl)piperazin-1-yl)pyrimidin-5-yl)oxy)pyridin-4-yl)methyl)piperidin-4-yl)methyl)acetamide] are 15.8 nM and 9.2.
For `CC(=O)NCC1CCN(Cc2cc(Oc3cnc(N4CCN(CC(O)C(=O)O)CC4)nc3)nc(-c3cc(Cl)cc(Cl)c3)c2)CC1` (stereo not shown) [Example 316, 3-(4-(5-((4-((4-(acetamidomethyl)piperidin-1-yl)methyl)-6-(3,5-dichlorophenyl)pyridin-2-yl)oxy)pyrimidin-2-yl)piperazin-1-yl)-2-hydroxypropanoic acid], in that order: 100 nM and 10.2.
In the same order, the values of `C[C@@H](O)CN1CCN(c2ncc(Oc3cc(CN4CCC(OCC(=O)O)CC4)cc(-c4cc(Cl)cc(Cl)c4)n3)cn2)CC1` [Example 317, (R)-2-((1-((2-(3,5-dichlorophenyl)-6-((2-(4-(2-hydroxypropyl)piperazin-1-yl)pyrimidin-5-yl)oxy)pyridin-4-yl)methyl)piperidin-4-yl)oxy)acetic acid] are 15.8 nM and 9.2.
For the compound `CN1CCN(c2ncc(Oc3cc(CN4CCC(CB(O)O)CC4)cc(-c4cc(Cl)cc(Cl)c4)n3)cn2)CC1` [Example 318, ((1-((2-(3,5-Dichlorophenyl)-6-((2-(4-methylpiperazin-1-yl)pyrimidin-5-yl)oxy)pyridin-4-yl)methyl)piperidin-4-yl)methyl)boronic acid, 4 hydrochloride], the EC50 in test [1] was 10 nM. In addition, the “furin enzyme pIC50” value in test [2] is on record as 8.9.
For `CC(=O)NCC1CCN(Cc2cc(Oc3cnc(N4CCN(CCB(O)O)CC4)nc3)nc(-c3cc(Cl)cc(Cl)c3)c2)CC1` [Example 319, (2-(4-(5-((4-((4-(Acetamidomethyl)piperidin-1-yl)methyl)-6-(3,5-dichlorophenyl)pyridin-2-yl)oxy)pyrimidin-2-yl)piperazin-1-yl)ethyl)boronic acid, 4 hydrochloride], in that order: 1 nM and 8.9.
Regarding `CN1CCN(c2ncc(Oc3cc(CN4CCC(CP(C)(C)=O)CC4)cc(-c4cc(Cl)cc(Cl)c4)n3)cn2)CC1` [Example 320, ((1-((2-(3,5-Dichlorophenyl)-6-((2-(4-methylpiperazin-1-yl)pyrimidin-5-yl)oxy)pyridin-4-yl)methyl)piperidin-4-yl)methyl)dimethylphosphine oxide, 4 hydrochloride], the EC50 in test [1] was 12.6 nM. Besides, the “furin enzyme pIC50” value in test [2] is 8.2.
`CN1CCCN(c2ncc(Oc3cc(CN4CCC(CB(O)O)CC4)cc(-c4cc(Cl)cc(Cl)c4)n3)cn2)CC1` [Example 322, ((1-((2-(3,5-dichlorophenyl)-6-((2-(4-methyl-1,4-diazepan-1-yl)pyrimidin-5-yl)oxy)pyridin-4-yl)methyl)piperidin-4-yl)methyl)boronic acid]: the EC50 in test [1] is 6.31 nM. Also, the “furin enzyme pIC50” value in test [2] worked out at 8.9.
As to `CN1CCN(c2ncc(Oc3cc(CN4CCC(CCB(O)O)CC4)cc(-c4cc(Cl)cc(Cl)c4)n3)cn2)CC1` [Example 323, (2-(1-((2-(3,5-dichlorophenyl)-6-((2-(4-methylpiperazin-1-yl)pyrimidin-5-yl)oxy)pyridin-4-yl)methyl)piperidin-4-yl)ethyl)boronic acid], the EC50 in test [1] was 12.6 nM. Further, the “furin enzyme pIC50” value in test [2] was 8.7.
For `CC(=O)NC(=O)OCC1CCN(Cc2cc(Oc3cnc(N4CCN(C)CC4)nc3)nc(-c3cc(Cl)cc(Cl)c3)c2)CC1` [Example 324], in that order: 15.8 nM and 8.3.
Take `COC(=O)NC(=O)NCC1CCN(Cc2cc(Oc3cnc(N4CCN(C)CC4)nc3)nc(-c3cc(Cl)cc(Cl)c3)c2)CC1` [Example 325]: the EC50 in test [1] is 6.31 nM. The “furin enzyme pIC50” value in test [2] is given as 8.3.
On to `CN1CCN(c2ncc(Oc3cc(CN4CCC(CNC(=O)NS(C)(=O)=O)CC4)cc(-c4cc(Cl)cc(Cl)c4)n3)cn2)CC1` [Example 326, N-(((1-((2-(3,5-dichlorophenyl)-6-((2-(4-methylpiperazin-1-yl)pyrimidin-5-yl)oxy)pyridin-4-yl)methyl)piperidin-4-yl)methyl)carbamoyl)methanesulfonamide], for which the EC50 in test [1] is 12.6 nM. The “furin enzyme pIC50” value in test [2] stood at 8.7.
In the same order, the values of `CC(=O)NC(=O)NCC1CCN(Cc2cc(Oc3cnc(N4CCN(C)CC4)nc3)nc(-c3cc(Cl)cc(Cl)c3)c2)CC1` [Example 327] are 3.16 nM and 8.6.
